One assay concerns the target T1, Coagulation factor XII (Homo sapiens, UniProt P00748).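 Further: activated factor XIIa alpha cleaving a fluorogenic AMC peptide substrate; inhibitor potency from loss of enzyme activity.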
T1 sequence (P00748 whole entry): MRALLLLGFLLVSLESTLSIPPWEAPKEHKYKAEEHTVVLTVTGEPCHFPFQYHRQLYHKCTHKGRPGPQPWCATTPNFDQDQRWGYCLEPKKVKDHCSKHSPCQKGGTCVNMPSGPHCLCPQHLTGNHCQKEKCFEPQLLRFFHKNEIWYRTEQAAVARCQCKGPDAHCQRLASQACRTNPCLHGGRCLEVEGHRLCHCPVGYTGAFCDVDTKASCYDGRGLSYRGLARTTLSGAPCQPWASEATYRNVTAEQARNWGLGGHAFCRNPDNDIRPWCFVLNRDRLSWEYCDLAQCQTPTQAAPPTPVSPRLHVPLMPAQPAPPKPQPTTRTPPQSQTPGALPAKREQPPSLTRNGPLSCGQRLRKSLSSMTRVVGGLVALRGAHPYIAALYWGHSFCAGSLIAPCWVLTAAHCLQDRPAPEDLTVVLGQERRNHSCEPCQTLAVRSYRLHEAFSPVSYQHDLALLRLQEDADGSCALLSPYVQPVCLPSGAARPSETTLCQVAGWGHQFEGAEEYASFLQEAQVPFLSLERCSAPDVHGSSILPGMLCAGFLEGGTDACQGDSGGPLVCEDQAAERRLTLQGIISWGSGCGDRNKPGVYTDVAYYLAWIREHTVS
The assay is classed as functional.

The target of assay [1] is Alkaline phosphatase, placental type (Homo sapiens, UniProt P05187). Nature of the assay: PLAP enzyme inhibitors, confirmation, biochemical, luminescence (AID 1512). The assay is classed as functional.
Alkaline phosphatase, placental type, sequence (P05187 whole entry): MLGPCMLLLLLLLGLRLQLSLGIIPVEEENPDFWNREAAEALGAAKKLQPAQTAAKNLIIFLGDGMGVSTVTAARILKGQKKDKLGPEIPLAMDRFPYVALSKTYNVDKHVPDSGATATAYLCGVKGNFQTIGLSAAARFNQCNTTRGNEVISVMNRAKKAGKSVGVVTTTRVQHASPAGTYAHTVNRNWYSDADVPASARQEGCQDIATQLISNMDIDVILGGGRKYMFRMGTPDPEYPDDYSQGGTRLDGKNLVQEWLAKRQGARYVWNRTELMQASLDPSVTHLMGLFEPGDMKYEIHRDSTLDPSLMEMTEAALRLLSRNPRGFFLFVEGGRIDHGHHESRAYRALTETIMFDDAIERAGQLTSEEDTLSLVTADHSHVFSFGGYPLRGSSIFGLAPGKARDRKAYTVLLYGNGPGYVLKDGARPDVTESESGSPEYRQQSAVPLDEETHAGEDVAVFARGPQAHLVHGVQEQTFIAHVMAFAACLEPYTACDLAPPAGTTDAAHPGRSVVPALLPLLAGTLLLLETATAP
Assay [2] has as its target T2, Alkaline phosphatase, tissue-nonspecific isozyme (Homo sapiens, UniProt P05186).
T2 sequence (P05186 whole entry): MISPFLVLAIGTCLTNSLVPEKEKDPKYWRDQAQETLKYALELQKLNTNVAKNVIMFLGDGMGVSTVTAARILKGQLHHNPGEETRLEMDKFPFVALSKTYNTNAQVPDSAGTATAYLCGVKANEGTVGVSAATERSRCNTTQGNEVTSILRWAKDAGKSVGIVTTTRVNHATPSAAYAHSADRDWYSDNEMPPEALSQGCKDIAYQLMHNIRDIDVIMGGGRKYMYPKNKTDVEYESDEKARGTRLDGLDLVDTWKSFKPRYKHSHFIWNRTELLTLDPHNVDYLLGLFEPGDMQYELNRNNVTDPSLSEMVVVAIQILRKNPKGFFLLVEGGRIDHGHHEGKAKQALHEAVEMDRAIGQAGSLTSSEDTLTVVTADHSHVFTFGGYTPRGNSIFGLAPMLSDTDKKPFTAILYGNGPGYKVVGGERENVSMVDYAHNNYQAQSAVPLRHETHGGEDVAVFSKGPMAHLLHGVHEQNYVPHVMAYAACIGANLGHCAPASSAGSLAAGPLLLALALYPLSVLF
Nature of the assay: human TNAP enzyme inhibitors, SAR follow-up, biochemical, luminescent, dose response (AID 1056).

Another assay addresses Ion channel NompC (Danio rerio, UniProt Q7T1G6). Nature of the assay: Dose response cell-based high-throughput screening assay for agonists of the transient receptor potential channel N1 (TRPN1). [Related pubchem assays (depositor defined):AID1424, AID1448]. The assay is classed as functional.
Another assay deals with T3, Mucolipin-3 (Homo sapiens, UniProt Q8TDD5).
T3 sequence (Q8TDD5 whole entry): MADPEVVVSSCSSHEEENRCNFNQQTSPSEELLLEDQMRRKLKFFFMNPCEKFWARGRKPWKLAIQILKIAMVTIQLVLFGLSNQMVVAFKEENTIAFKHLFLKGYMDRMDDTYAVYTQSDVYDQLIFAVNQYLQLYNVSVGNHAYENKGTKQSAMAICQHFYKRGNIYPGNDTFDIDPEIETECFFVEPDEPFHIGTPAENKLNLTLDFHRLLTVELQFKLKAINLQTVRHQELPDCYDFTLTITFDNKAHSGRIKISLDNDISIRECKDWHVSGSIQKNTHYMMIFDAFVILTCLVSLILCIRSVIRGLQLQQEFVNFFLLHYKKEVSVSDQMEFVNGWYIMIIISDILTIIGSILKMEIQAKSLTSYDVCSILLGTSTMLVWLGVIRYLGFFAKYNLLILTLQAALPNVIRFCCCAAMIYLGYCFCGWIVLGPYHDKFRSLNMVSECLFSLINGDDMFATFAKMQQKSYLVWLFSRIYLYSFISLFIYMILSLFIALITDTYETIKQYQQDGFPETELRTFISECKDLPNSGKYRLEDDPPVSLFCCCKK
Nature of the assay: Fluorescence counterscreen assay for […] agonists: dose response cell-based high-throughput screening assay to identify agonists of the transient receptor potential channel ML3 (TRPML3). [Related pubchem assays: 1424, 1448 ]. The assay is classed as functional. On the technique in general: Counterscreens check selectivity or assay interference.

In assay [3] the target is Glyceraldehyde-3-phosphate dehydrogenase (Homo sapiens, UniProt P04406).
Glyceraldehyde-3-phosphate dehydrogenase, sequence (P04406 whole entry): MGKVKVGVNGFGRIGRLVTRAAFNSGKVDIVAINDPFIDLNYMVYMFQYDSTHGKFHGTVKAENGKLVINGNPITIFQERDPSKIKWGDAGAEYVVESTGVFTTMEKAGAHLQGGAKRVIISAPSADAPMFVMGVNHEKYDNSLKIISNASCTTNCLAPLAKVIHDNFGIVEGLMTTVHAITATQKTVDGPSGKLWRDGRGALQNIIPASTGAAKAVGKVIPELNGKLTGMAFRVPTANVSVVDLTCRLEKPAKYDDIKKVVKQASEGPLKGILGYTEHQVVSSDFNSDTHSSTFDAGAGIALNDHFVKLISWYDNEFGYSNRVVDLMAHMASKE
In assay [4] the target is Peroxisome proliferator-activated receptor gamma/Nuclear receptor coactivator 1 (Homo sapiens, UniProt P37231). The experiment in a line: TR-FRET dose response biochemical High Throughput Screening assay for agonists of the steroid receptor coactivator 1 (SRC-1) recruitment by the peroxisome proliferator-activated receptor gamma (PPAR gamma): non-selective agonists. [Related pubchem assays (depositor defined):AID1300, AID1808, AID504735, AID631]. Format: protein assay. For orientation: In TR-FRET formats the signal depends on donor and acceptor labels being close together.

The target of assay [5] is Peroxisome proliferator-activated receptor gamma/Nuclear receptor coactivator 3 (Homo sapiens, UniProt P37231). The experiment in a line: TR-FRET dose response biochemical High Throughput Screening assay for agonists of the steroid receptor coactivator 3 (SRC-3) recruitment by the peroxisome proliferator-activated receptor gamma (PPAR gamma): non-selective agonists. [Related pubchem assays: 1301 (Confirmation screen.), 1048 (Primary screen.)]. The assay is classed as functional.
Peroxisome proliferator-activated receptor gamma/Nuclear receptor coactivator 3, sequence (P37231 whole entry): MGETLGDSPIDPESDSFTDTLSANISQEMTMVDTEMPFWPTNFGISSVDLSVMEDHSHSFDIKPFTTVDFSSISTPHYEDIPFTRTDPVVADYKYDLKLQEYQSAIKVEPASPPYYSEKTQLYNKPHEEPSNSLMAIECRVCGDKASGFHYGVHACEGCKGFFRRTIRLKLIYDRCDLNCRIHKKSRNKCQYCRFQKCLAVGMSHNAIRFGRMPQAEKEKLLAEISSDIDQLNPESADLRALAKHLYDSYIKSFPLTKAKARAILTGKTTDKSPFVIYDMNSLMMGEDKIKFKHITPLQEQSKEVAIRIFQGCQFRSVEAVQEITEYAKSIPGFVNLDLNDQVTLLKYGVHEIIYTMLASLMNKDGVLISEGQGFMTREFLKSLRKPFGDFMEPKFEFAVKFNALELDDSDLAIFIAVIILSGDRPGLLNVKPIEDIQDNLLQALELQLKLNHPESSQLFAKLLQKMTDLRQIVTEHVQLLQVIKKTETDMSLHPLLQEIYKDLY
Peroxisome proliferator-activated receptor gamma/Nuclear receptor coactivator 3, sequence (Q9Y6Q9 whole entry, further chain): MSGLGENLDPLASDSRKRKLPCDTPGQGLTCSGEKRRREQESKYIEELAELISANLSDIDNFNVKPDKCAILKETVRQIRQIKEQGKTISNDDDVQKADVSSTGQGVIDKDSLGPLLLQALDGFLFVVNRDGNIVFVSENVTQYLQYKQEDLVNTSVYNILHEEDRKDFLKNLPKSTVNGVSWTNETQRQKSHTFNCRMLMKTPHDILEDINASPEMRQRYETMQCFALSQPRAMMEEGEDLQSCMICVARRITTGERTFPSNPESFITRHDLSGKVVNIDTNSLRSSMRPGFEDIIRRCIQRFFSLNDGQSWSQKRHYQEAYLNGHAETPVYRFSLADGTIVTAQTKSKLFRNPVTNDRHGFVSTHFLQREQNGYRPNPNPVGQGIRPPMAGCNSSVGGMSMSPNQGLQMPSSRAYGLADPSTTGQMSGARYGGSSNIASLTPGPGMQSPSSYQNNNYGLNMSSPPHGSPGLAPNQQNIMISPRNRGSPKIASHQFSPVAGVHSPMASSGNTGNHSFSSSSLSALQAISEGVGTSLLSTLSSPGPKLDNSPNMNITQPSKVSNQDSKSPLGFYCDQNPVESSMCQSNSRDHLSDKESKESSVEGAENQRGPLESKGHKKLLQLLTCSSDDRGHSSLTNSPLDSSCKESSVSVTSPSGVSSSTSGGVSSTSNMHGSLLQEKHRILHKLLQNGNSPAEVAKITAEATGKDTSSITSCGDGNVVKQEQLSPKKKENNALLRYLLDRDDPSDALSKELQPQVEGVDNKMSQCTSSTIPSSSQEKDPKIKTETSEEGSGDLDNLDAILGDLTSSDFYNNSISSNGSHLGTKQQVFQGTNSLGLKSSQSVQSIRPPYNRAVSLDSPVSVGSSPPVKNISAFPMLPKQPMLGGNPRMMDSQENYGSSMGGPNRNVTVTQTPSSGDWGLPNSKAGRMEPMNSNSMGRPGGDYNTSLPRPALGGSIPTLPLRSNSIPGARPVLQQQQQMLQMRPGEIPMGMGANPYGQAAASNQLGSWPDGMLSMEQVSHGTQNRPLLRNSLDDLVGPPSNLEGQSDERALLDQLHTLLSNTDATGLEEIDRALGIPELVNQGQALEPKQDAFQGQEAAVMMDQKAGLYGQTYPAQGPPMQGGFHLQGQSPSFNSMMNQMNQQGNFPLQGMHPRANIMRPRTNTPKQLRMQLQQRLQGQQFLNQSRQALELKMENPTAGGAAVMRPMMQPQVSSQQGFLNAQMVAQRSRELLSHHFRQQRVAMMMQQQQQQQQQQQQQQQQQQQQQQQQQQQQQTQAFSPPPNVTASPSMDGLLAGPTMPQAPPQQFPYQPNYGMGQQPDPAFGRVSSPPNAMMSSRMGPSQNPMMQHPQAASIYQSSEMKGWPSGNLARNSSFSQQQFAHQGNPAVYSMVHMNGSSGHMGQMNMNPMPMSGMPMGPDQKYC

Assay [6] deals with Peroxisome proliferator-activated receptor gamma/Nuclear receptor coactivator 2 (Homo sapiens, UniProt P37231). The experiment in a line: TR-FRET dose response biochemical High Throughput Screening assay for agonists of the steroid receptor coactivator 2 (SRC-2) recruitment by the peroxisome proliferator-activated receptor gamma (PPAR gamma): non-selective agonists. [Related pubchem assays: 1297, 1032 ]. Format: functional.
Peroxisome proliferator-activated receptor gamma/Nuclear receptor coactivator 2, sequence (P37231 whole entry): as the sequence (P37231 whole entry) above
Peroxisome proliferator-activated receptor gamma/Nuclear receptor coactivator 2, sequence (Q15596 whole entry, further chain): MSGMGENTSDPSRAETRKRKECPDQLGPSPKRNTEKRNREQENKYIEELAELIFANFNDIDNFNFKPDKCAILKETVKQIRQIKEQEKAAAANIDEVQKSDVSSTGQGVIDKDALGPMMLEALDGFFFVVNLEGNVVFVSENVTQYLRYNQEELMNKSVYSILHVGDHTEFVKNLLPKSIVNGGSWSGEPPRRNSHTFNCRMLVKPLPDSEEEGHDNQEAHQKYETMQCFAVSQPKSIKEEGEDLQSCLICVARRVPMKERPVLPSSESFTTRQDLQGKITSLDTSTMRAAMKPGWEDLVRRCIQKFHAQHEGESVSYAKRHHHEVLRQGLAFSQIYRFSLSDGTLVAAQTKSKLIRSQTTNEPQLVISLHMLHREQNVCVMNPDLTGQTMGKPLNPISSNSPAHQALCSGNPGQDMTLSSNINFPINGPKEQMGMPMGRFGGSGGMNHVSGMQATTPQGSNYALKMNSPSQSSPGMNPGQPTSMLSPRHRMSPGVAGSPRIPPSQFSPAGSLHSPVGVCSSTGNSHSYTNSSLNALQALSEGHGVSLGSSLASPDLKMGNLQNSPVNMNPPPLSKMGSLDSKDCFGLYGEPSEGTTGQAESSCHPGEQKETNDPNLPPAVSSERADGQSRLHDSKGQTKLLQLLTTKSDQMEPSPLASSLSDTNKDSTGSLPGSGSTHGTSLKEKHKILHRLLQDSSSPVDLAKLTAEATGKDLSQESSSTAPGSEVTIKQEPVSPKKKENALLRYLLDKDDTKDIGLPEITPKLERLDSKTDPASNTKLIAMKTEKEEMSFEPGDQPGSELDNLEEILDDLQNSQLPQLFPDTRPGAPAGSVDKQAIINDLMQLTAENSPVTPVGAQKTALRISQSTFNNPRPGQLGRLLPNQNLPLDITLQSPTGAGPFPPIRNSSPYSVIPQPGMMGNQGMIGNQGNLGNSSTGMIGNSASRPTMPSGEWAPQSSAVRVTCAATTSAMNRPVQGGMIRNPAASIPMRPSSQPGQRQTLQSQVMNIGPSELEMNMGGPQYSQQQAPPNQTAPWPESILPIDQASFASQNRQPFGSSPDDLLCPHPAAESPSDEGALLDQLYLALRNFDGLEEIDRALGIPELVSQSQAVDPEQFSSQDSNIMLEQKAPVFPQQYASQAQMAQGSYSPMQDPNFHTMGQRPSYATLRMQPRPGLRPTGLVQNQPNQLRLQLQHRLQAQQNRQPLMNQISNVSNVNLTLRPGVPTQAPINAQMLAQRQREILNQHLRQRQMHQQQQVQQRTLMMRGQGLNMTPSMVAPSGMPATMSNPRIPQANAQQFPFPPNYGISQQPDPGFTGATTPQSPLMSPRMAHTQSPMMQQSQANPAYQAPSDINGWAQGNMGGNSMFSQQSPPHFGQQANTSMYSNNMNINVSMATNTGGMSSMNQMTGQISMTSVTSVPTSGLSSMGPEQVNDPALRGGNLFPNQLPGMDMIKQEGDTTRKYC

A short description of assay [7]: inhibitors of intracellular T. cruzi replication, confirmation, NIH3T3 host cells, beta-gal luminescence (AID 2044).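 Further: intracellular parasites grown in NIH/3T3 mouse fibroblasts as host cells; luminescent beta-galactosidase reporter signal from transgenic T. cruzi replicating inside host cells; inhibitors lower the luminescence signal.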 Format: functional, cell-based.
Assay [8] is described as follows: cytotoxicity toward NIH3T3 fibroblasts, dose response, counter-screen, cell-based, ATP luminescence, mouse fibroblasts (AID 2010).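 Further: cells exposed to compound for about 90 hours before reading.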 The assay is classed as functional.
Assay [9] in a line: THP-1 cell cytotoxicity, dose response, cytotoxicity control for non-replicating M. tuberculosis project (AID 489025). Format: functional.
Assay [10] in a line: HepG2 cell cytotoxicity, dose response, cytotoxicity control for non-replicating M. tuberculosis project (AID 489018). Format: functional. The conditions noted are these: Mycobacterium tuberculosis.
Assay [11] in a line: Vero E6 cell cytotoxicity, dose response, cytotoxicity control for non-replicating M. tuberculosis project, secondary assay (AID 492998). The assay is classed as functional, VeroE6. The note with it: Vero C1008.
Another assay can be described thus: cells. Format: functional.
The target in assay [12] is T4, High affinity choline transporter 1 (Homo sapiens, UniProt Q9GZV3).
T4 sequence (Q9GZV3 whole entry): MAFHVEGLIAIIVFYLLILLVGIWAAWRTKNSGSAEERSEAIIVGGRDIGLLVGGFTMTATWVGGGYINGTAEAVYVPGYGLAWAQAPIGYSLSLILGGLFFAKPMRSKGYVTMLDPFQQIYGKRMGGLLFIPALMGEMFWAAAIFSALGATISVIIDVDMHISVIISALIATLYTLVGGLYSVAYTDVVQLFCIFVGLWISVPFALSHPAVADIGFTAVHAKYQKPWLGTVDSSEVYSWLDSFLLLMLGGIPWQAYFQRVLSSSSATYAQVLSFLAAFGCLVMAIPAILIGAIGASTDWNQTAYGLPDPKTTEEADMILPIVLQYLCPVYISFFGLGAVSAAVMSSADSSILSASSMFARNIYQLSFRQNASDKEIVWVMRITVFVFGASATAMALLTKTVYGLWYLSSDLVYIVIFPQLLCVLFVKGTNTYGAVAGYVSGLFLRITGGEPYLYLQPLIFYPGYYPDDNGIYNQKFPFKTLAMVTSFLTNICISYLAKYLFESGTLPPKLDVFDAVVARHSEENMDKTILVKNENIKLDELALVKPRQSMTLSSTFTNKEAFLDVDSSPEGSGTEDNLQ
Nature of the assay: CHT inhibitors, dose response, cell-based, 5-point CRC, membrane potential dye (AID 504840). Format: functional.

Assay [13] has as its target G-protein coupled receptor 55 (Homo sapiens, UniProt Q9Y2T6). Nature of the assay: GPR55 antagonists blocking LPI-driven arrestin recruitment, primary screen, imaging, U2OS, beta-arrestin-GFP, LPI agonist (AID 2013).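 Further: antagonist potency measured as reduced agonist-driven arrestin aggregation.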 Format: functional.
The target of assay [14] is T5, Heat shock factor protein 1 (Mus musculus, UniProt P38532).
T5 sequence (P38532 whole entry): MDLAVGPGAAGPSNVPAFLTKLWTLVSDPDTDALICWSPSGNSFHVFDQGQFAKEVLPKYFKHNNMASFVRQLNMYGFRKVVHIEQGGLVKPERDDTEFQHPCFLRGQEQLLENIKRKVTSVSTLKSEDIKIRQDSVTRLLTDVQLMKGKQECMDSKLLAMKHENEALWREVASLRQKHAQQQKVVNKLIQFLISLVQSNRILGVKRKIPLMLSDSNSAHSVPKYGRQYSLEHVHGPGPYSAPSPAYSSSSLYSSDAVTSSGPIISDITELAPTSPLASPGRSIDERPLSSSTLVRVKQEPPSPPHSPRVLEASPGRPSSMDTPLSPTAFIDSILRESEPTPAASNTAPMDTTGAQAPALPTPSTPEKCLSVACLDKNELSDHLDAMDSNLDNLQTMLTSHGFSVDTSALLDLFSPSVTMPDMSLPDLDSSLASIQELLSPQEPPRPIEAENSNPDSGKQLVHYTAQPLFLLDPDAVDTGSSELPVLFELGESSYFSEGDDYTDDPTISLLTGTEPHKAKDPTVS
Nature of the assay: HSF1 potentiators in luciferase reporter cells, confirmation, cell-based, NIH3T3, luminescence, dose retest (AID 435004).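 Further: stress induced by proteasome inhibitor MG132 added 30 min after compound; luciferase reporter driven by HSF1 response element in NIH3T3 cells; actives raise luminescence as potentiators of the MG132 stress response.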 The assay is classed as functional. On the technique in general: A reporter such as luciferase makes a cellular process visible.

Assay [15] deals with Heat shock protein HSP 90-alpha (Homo sapiens, UniProt P07900). Format: functional, organism-based.

Active and inactive are the calls of the source.

As for `Cn1c(SCC(=O)c2ccccc2)nnc1-c1cccc(N)c1`, the values for the IC50 (on Coagulation factor XII; in assay [1]; in assay [2]) were > 50 µM (inactive), > 100 µM (inactive) and > 100 µM (inactive), respectively.

With `CCOC(=O)c1ccc(NC(=O)Nc2ccc(F)cc2)cc1`, the EC50 (usually the concentration needed to bring the measured effect to its halfway point) at Ion channel NompC is > 9.97 µM (inactive); at Mucolipin-3, > 29.9 µM (not active).

Take `COC(=O)c1cc(-c2cc(F)c(Cl)cc2Cl)n[nH]1`: the results for the IC50 in assay [3], in [1] and in [2] were > 100 µM (not active), > 100 µM (inactive) and 0.911 µM (active), respectively.

As to `Brc1ccc(-c2nc3ccccc3s2)s1`, the EC50 in assay [4] is 3.34 µM (active); in [5] it was 81.4 µM (not active); in assay [6] it was 3.18 µM (active).

Consider `CN(C)CCCn1c(=O)n(CCc2ccccc2)c(=O)c2c3c(sc21)CCCCC3`, for which the EC50 in assay [7] was 0.113 µM (active); in assay [8] it was 36.1 µM (active). The values for the CC50 in assay [9], in assay [10] and in assay [11] were 19.1 µM (active), 14.3 µM (active) and 12.5 µM (active), respectively. Besides, the IC50 (usually the concentration that inhibits the measured activity by half) in the assay “cells” is 21.2 µM (active); in [12], 12.6 µM (active).

As to `Cn1c(=O)cc(SCC(=O)N2CCC3(CC2)OCCO3)c2ccccc21`, the EC50 is > 79.4 µM (inactive) in assay [4], > 79.4 µM (not active) in [5] and > 79.4 µM (not active) in assay [6].

Turning to `Clc1ccccc1CN(Cc1ccco1)Cc1nnnn1C1CCCC1`, in assay [13], the IC50 is 4.16 µM (active). Besides, in [14], the EC50 is > 260 µM (inactive). The AC50 (in general, the concentration at which the activity in the assay is half-maximal) in [15] is 5.48 µM (active).

Source of the values: ChEMBL document CHEMBL1201862, “PubChem BioAssay data set” (2004).
